Measured values as given in US20250243194A1, “ANTAGONIST OF ADENOSINE RECEPTORS” (AdoRx Therapeutics Limited, priority 2022, published 2025).

Assays:
[1] = test system: human PBMCs; assay: CD3/CD28 stimulated IL-2 release NECA reversal assay in human PBMCs; type: cell-based; details: PBMC, reversal of 1 uM NECA, 24 hours
Method: Blood is drawn from healthy volunteers using sodium citrate as the anticoagulant (0.3% final concentration). After centrifugation of the blood over Histopaque-1077, PBMCs are collected from the Histopaque/plasma interface and washed twice in PBS (300 g for 10 mins at room temp). Cells are plated at 50,000 cells/well in 150 μl RPMI/10% FCS in 96-well cell culture plates that have been precoated with 1 μg/ml CD3 antibody. 50 μl diluted compound mix is added to the cells, to obtain final concentrations of 1 μg/ml CD28 antibody, 1 uM NECA and 0.003-10 μM adenosine receptor antagonist. Assay plates are incubated for 24 hours at 37° C. in a humidified incubator. Culture supernatant is tested for IL-2 levels using the human IL-2 Tissue Culture Kit (Meso Scale Discovery).

[2] = molecular target: human Adenosine A1 receptor (Homo sapiens (Human), UniProt P30542); assay: Adenosine receptor TR-FRET binding assay (A1); details: inhibition of binding of 100 nM CA200645; CHO cell membranes; Ki from IC50 by Cheng and Prusoff
Procedure, shortened: (§1)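 Compounds incubated 2 h at room temperature with membranes from CHO cells expressing terbium-labelled human receptors, competing with the fluorescent antagonist CA200645 (30 nM for A2b; 100 nM for A1, A2a and A3). Read by TR-FRET (665/620 nm); non-specific binding defined with 10 μM XAC. Ki derived from IC50 via Cheng-Prusoff.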

[3] = molecular target: human Adenosine A2a receptor (Homo sapiens (Human), UniProt P29274); assay: Adenosine receptor TR-FRET binding assay (A2a); details: inhibition of binding of 100 nM CA200645; CHO cell membranes; Ki from IC50 by Cheng and Prusoff
Procedure, shortened: as §1

[4] = test system: immature monocyte-derived dendritic cells (MoDC); assay: MoDC pCREB assay; type: cell-based; details: Homo sapiens, Dendritic cell, CD209+/CD86-low cells, 1 μM NECA, 20 μM rolipram, largely specific to A2B
Method: Monocytes are isolated from human whole blood using CD14 microbeads (Miltenyi Biotec 130-050-201) and differentiated to immature monocyte-derived dendritic cells (MoDC) by culture for 5 days in Mo-DC Differentiation Medium (Miltenyi Biotec 130-094-812). MoDCs are seeded into fresh medium into U bottomed 96 well culture plates and pre-incubated at 37° C. with serial dilutions of A2A/B antagonists for 15 min. At the same time the cells are co-incubated with the phosphodiesterase inhibitor rolipram (final concentration of 20 μM) to amplify the subsequent pCREB response. Adenosine receptor agonist NECA is then added at 1 μM final concentration, leading to an increase in CREB phosphorylation. Following a 45 min incubation at 37° C., the cells are fixed, permeabilized and stained with directly conjugated fluorescent antibodies to phospho-CREB (Alexa Fluor 488), CD209 (PerCP-Cy5.5) and CD86 (APC). Samples are analysed by FACS to measure fluorescence in corresponding channels, and also forward and Side scatter. The population of CD209+/CD86-low cells corresponding to immature dendritic cells is gated for analysis of pCREB levels.
Approximately 5% of the analysed cells are positive for detection of pCREB in the absence of agonist stimulation, representing the background signalling of all pathways upstream of CREB. Following NECA stimulation this is increased to ˜80% pCREB+ve, and this increase is essentially fully reversible by A2B or dual A2A/B antagonists.
IC50 is represented as the point of inflection of a sigmoidal curve

[5] = test system: CD8+ T cells in human whole blood; assay: Measurement of pCREB in CD8+ T cells in human whole blood; type: cell-based; details: T-cell, 3 μM NECA, rolipram, FACS
Method: Heparinised human whole blood was pre-incubated at 37° C. with serial dilutions of A2a antagonists for 20 min. and the phosphodiesterase inhibitor rolipram to amplify the pCREB response. The adenosine receptor agonist NECA is then added at a final concentration of 3 μM and following a 60 min incubation the blood is fixed and red blood cells lysed. White blood cells are isolated, permeabilized and stained with directly conjugated fluorescent antibodies to phospho-CREB (Alexa Fluor 488) and CD8 (Alexa Fluor 647) and the level of phospho-CREB in CD8+ T cells is measured by FACS using a BD Accuri C6 Flow Cytometer.

[6] = molecular target: human Adenosine A2b receptor (Homo sapiens (Human), UniProt P29275); assay: Adenosine receptor TR-FRET binding assay (A2b); details: inhibition of binding of 30 nM CA200645; CHO cell membranes; Ki from IC50 by Cheng and Prusoff
Procedure, shortened: as §1

[7] = molecular target: human Adenosine A3 receptor (Homo sapiens (Human), UniProt P0DMS8); assay: Adenosine receptor TR-FRET binding assay (A3); details: inhibition of binding of 100 nM CA200645; CHO cell membranes; Ki from IC50 by Cheng and Prusoff
Method: All FRET binding experiments were conducted at room temperature in white 384-well plates, in assay binding buffer containing 1× LabMed (Cisbio, France), 100 μg/mL saponin, 1% DMSO and 0.02% pluronic acid. Binding of the fluorescently labelled Adenosine receptor antagonist XAC (CA200645, FRET acceptor) to terbium-labelled A1, A2a, A2b and A3 adenosine receptors (FRET donors) was detected by time-resolved FRET due to the close proximity of the donor and acceptor in a binding event. To investigate the ability of unlabelled test compounds to bind to Adenosine A1, A2a, A2b and A3 receptors, dose response curves were constructed that determined the ability of a range of concentrations to inhibit the binding of 30 nM CA200645 to the A2b receptor and 100 nM CA200645 to the A1, A2a, and A3 receptor.
Serial dilution (1:3 dilutions) of test compounds in neat DMSO and transfer of a 400 nL sample of test compound into the assay plate was carried out using the Mosquito (TTP Labtech, UK). The compound samples were incubated for 2 hours at room temperature with a fixed concentration of CA200645 defined for each receptor (see above) and CHO cell membranes containing the human Adenosine A1 (0.5 μg/well), A2a (0.3 μg/well), A2b (1 μg/well) or A3 (1 μg/well) receptor in 40 μL of assay buffer. Total and non-specific binding of CA200645 was determined in the absence and presence of 10 μM XAC, respectively. Following 2 hours incubation, the level of CA200645 binding was detected on a Pherastar FSX (BMG Labtech, Germany) using standard TR-FRET settings. The terbium donor was excited with three laser flashes at a wavelength of 337 nm, and donor and acceptor emission was detected at 620 nm and 665 nm wavelengths, respectively. FRET ratios were obtained by multiplying the acceptor/donor ratio value by 10,000. Specific binding was determined by subtracting the non-specific binding FRET ratio from the total binding FRET ratio. Compound IC50 curves were analysed using GraphPad Prism 7.0 (GraphPad, USA) and Ki affinity values were determined from the obtained IC50 values using the method of Cheng and Prusoff.

Sequence of human Adenosine A1 receptor (P30542 whole entry): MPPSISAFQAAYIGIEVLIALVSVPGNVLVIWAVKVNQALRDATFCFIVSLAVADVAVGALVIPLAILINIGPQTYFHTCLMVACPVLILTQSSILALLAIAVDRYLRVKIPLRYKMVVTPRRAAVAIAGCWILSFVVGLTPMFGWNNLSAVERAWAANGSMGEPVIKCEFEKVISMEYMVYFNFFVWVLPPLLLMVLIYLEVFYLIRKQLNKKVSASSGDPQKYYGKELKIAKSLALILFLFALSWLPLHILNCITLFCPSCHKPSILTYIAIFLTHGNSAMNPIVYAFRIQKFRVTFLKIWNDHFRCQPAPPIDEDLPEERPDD
Sequence of human Adenosine A2a receptor (P29274 whole entry): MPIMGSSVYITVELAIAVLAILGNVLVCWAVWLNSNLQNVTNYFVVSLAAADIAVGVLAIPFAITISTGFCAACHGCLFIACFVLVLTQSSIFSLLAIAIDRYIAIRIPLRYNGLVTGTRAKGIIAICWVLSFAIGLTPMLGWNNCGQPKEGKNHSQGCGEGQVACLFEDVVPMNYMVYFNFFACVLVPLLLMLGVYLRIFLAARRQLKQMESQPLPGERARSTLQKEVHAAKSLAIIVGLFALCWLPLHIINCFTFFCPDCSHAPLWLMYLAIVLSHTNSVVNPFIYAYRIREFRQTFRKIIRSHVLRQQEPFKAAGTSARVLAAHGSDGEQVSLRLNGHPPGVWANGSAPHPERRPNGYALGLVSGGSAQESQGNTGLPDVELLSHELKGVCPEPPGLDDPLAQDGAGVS
Sequence of human Adenosine A2b receptor (P29275 whole entry): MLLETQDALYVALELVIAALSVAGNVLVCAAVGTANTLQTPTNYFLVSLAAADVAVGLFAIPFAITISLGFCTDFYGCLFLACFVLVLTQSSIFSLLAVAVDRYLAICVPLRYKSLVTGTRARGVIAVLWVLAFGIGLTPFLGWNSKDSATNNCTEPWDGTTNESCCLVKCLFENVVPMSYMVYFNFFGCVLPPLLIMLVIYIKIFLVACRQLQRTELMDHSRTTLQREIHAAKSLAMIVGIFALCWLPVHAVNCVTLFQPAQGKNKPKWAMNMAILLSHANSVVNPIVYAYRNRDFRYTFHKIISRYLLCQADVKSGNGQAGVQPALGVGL
Sequence of human Adenosine A3 receptor (P0DMS8 whole entry): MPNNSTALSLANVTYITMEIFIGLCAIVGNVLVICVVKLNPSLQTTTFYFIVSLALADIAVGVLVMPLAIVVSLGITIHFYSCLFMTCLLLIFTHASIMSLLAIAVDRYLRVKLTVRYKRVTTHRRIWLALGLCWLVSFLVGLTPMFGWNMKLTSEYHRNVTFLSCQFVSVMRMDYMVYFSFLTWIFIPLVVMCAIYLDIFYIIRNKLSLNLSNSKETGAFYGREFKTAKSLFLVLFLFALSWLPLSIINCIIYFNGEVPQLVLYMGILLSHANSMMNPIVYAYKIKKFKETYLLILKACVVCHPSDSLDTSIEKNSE

| Ki [2] [nM] | Ki [3] [nM] | IC50 [4] [nM] | IC50 [5] [nM] | Ki [6] [nM] | Ki [7] [nM] | Compound | IC50 [1] [nM] |
| --- | --- | --- | --- | --- | --- | --- | --- |
| 12 | 0.25 | 3 | 50 | 2.5 |  | Cc1ncnc2ccc(-c3sc(NC(=O)N4CCNCC4CC4CC4)nc3-c3cccc(C#N)c3)cc12 (centres unmarked) [Example 2.1, N-[4-(3-Cyanophenyl)-5-(4-methylquinazolin-6-yl)thiazol-2-yl]-2-(cyclopropylmethyl)piperazine-1-carboxamide] | 1.8 |
| 0.2 | 0.36 |  | 219 | 0.5 | 758 | N#Cc1cccc(-c2nc(NC(=O)N3CCOCC3)sc2-c2ccn3nccc3c2)c1 [Example 33, N-[4-(3-Cyanophenyl)-5-pyrazolo[1,5-a]pyridin-5-yl-thiazol-2-yl]morpholine-4-carboxamide] | 6.4 |
| 3 | 0.07 | 2 | 11 | 0.8 |  | Cc1ncnc2ccc(-c3sc(NC(=O)N4CCC(C)(C#N)CC4)nc3-c3cccc(C#N)c3)cc12 [Example 6, 4-Cyano-N-[4-(3-cyanophenyl)-5-(4-methylquinazolin-6-yl)thiazol-2-yl]-4-methyl-piperidine-1-carboxamide] | 0.1 |
| 3 | 0.12 | 2 | 7 | 1.1 |  | Cc1ncnc2ccc(-c3sc(NC(=O)N4CCC(C)(C#N)C4)nc3-c3cccc(C#N)c3)cc12 (centres unmarked) [Example 7.25, 3-Cyano-N-[4-(3-cyanophenyl)-5-(4-methylquinazolin-6-yl)thiazol-2-yl]-3-methyl-pyrrolidine-1-carboxamide] | 0.3 |
| 18 | 0.14 | 2 | 12 | 1.3 |  | Cc1ncnc2ccc(-c3sc(NC(=O)N4CC5(C4)CC(C)(O)C5)nc3-c3cccc(C#N)c3)cc12 [Example 7.24, N-[4-(3-Cyanophenyl)-5-(4-methylquinazolin-6-yl)thiazol-2-yl]-6-hydroxy-6-methyl-2-azaspiro[3.3]heptane-2-carboxamide] | 0.7 |
| 8 | 0.18 | 3 | 105 | 1 |  | Cc1ncnc2c(C)cc(-c3sc(NC(=O)N4CC5(COC5)C4)nc3-c3cccc(C#N)c3)cc12 [Example 20, N-[4-(3-Cyanophenyl)-5-(4,8-dimethylquinazolin-6-yl)thiazol-2-yl]-2-oxa-6-azaspiro[3.3]heptane-6-carboxamide] | 0.8 |
| 65 | 0.64 | 5 | 22 | 3.3 |  | Cc1ncnc2ccc(-c3sc(NC(=O)N4CCN(C5COC5)CC4)nc3-c3cccc(C#N)c3)cc12 [Example 7.28, N-[4-(3-Cyanophenyl)-5-(4-methylquinazolin-6-yl)thiazol-2-yl]-4-(oxetan-3-yl)piperazine-1-carboxamide] | 0.9 |
| 345 | 1.83 | 4 | 60 | 6.4 |  | Cc1ncnc2ccc(-c3sc(NC(=O)N4CC5(CN(C)C5)C4)nc3-c3cccc(C#N)c3)cc12 [Example 7.4, N-[4-(3-Cyanophenyl)-5-(4-methylquinazolin-6-yl)thiazol-2-yl]-6-methyl-2,6-diazaspiro[3.3]heptane-2-carboxamide] | 3 |
| 19 | 0.13 | 2 | 15 | 1.8 |  | Cc1ncnc2ccc(-c3sc(NC(=O)N4CCC5(CC4)CN(C)C(=O)O5)nc3-c3cccc(C#N)c3)cc12 [Example 7.26, N-[4-(3-Cyanophenyl)-5-(4-methylquinazolin-6-yl)thiazol-2-yl]-3-methyl-2-oxo-1-oxa-3,8-diazaspiro[4.5]decane-8-carboxamide] | 0.5 |
|  | 0.1 | 3 | 10 | 1.4 |  | Cc1ncnc2ccc(-c3sc(NC(=O)N4CC[C@@H](C(C)(C)O)C4)nc3-c3cccc(C#N)c3)cc12 [Example 7, (3R)—N-[4-(3-Cyanophenyl)-5-(4-methylquinazolin-6-yl)thiazol-2-yl]-3-(1-hydroxy-1-methyl-ethyl)pyrrolidine-1-carboxamide] | 0.3 |
| 70 | 0.32 | 3 | 20 | 2.8 |  | Cc1ncnc2ccc(-c3sc(NC(=O)N4CCC5(CC4)COCCN5)nc3-c3cccc(C#N)c3)cc12 [Example 2, N-[4-(3-Cyanophenyl)-5-(4-methylquinazolin-6-yl)thiazol-2-yl]-4-oxa-1,9-diazaspiro[5.5]undecane-9-carboxamide] |  |
| 554 | 2.26 | 6 | 70 | 7.7 |  | Cc1ncnc2ccc(-c3sc(NC(=O)N4CCC(N5CCNCC5)CC4)nc3-c3cccc(C#N)c3)cc12 [Example 3, N-[4-(3-Cyanophenyl)-5-(4-methylquinazolin-6-yl)thiazol-2-yl]-4-piperazin-1-yl-piperidine-1-carboxamide] |  |
|  | 0.17 | 3 | 15 | 1.7 |  | Cc1ncnc2ccc(-c3sc(NC(=O)N4CC[C@H](C(C)(C)O)C4)nc3-c3cccc(C#N)c3)cc12 [Example 5, (3S)—N-[4-(3-Cyanophenyl)-5-(4-methylquinazolin-6-yl)thiazol-2-yl]-3-(1-hydroxy-1-methyl-ethyl)pyrrolidine-1-carboxamide] | 0.4 |
